Results published in publication doi:10.1101/2020.01.14.906396v1 (biorxiv, 2020).

Target: T1, K2P2.1 (TREK-1, KCNK2) (Homo sapiens, UniProt O95069)
T1 sequence (O95069 1-426): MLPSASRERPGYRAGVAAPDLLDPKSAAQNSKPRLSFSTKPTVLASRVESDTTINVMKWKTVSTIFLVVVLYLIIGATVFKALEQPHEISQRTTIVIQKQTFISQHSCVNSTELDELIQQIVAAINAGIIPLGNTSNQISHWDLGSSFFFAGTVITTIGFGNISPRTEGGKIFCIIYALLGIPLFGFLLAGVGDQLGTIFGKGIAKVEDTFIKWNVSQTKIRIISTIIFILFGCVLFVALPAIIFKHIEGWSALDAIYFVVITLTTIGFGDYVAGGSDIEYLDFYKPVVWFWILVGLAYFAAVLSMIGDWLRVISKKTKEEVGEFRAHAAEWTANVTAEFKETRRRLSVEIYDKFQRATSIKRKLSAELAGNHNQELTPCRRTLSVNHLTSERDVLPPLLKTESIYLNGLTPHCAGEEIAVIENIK
Test: two-electrode voltage clamp, Xenopus oocytes
Type: cell-based

Row | EC50 [µM] | SMILES
1 | 3800 ± 1000 | CC(C)[C@@H]1CC[C@@H](C)C[C@H]1O [menthol]
2 | 200 ± 60 | Cc1ccc(C(C)C)cc1O [carvacrol, 2-methyl-5-(propan-2-yl) phenol]
3 | 430 ± 240 | Cc1ccc(C(C)C)c(O)c1 [thymol]
